Key:
Format in all cases: biochemical
MMP-9 = molecular target: T1, MMP-9 (Homo sapiens, UniProt P14780); assay: In Vitro Gelatinase Assay; settings: human neutrophil gelatinase B, thiopeptide substrate
T1 construct: from tissue; host or cells: human neutrophils
Procedure: In Vitro Gelatinase Assay
The assay is based on the cleavage of the thiopeptide substrate ((Ac-Pro-Leu-Gly(2-mercapto-4-methyl-pentanoyl)-Leu-Gly-OEt), available from Bachem Bioscience) by the enzyme gelatinase, releasing the substrate product which reacts colorimetrically with DTNB ((5,5'-dithio-bis(2-nitro-benzoic acid)). This assay is disclosed in Weingarten et al., "Spectrophotometric Assay for Vertebrate Collegenase", Anal. Biochem., 147:437-440, (1985). The enzyme activity is measured by the rate of the color increase.
The thiopeptide substrate was made up fresh as a 20 mM stock in 100% DMSO and the DTNB was dissolved in 100% DMSO as a 100 mM stock and stored in the dark at room temperature. The substrate and the DTNB were diluted together to 1 mM with substrate buffer (50 mM HEPES, pH 7.5, 5 mM CaCl2) before use. The stock of human neutrophil gelatinase B was diluted with assay buffer (50 mM HEPES, pH 7.5, 5 mM CaCl2, 0.02% Brij) to a final concentration of 0.15 nM.
The assay buffer, enzyme, DTNB/substrate (500 µM final concentration) and vehicle or inhibitor were added to a 96 well plate (total reaction volume of 200µl) and the increase in color was monitored spectrophotometrically for 5 minutes at 405 nm on a plate reader.
The increase in OD405 was plotted and the slope of the line was calculated. The slope represents the reaction rate. The linearity of the reaction rate was confirmed (r^2 >0.85) and the mean (x ± sem) of the control rate was calculated and compared for statistical significance (p <0.05) with drug-treated rates using Dunnett's multiple comparison test. Dose-response relationships were generated using multiple doses of drug and IC50 values with 95% CI were estimated using linear regression (IPRED, HTB).

TACE = molecular target: T2, TACE (Homo sapiens, UniProt P78536); assay: Procedure for Measuring TACE Inhibition; settings: TACE (Immunex), fluorescent peptidyl substrate
T2 construct: purchased Immunex
T2 sequence (P78536 215-824): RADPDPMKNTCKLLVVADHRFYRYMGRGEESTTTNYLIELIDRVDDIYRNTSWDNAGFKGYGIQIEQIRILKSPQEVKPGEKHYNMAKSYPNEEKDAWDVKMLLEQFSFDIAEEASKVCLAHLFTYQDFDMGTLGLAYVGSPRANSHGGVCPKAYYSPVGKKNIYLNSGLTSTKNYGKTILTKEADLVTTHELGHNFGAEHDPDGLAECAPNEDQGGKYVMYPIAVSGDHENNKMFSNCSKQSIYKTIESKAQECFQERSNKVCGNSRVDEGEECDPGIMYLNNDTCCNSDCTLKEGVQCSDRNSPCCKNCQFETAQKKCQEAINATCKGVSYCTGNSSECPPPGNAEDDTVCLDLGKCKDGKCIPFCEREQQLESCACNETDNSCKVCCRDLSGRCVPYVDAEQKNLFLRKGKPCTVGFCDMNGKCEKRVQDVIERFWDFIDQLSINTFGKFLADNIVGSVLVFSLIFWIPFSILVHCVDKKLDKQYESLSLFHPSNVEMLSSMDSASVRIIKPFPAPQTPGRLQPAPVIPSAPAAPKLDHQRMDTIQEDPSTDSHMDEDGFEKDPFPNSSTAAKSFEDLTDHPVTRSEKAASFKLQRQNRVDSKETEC
Procedure: The plates were incubated for 10 minutes at room temperature. The reaction was initiated by addition of a fluorescent peptidyl substrate (final concentration 100 µM) to each well with shaking on a shaker for 5 sec. The reaction was read (excitation 340 nm, emission 420 nm) for 10 min. and the increase in fluorescence over time was plotted as a linear line. The slope of the line was calculated and this represents the reaction rate. […] The mean (x±sem) of the control rate was calculated and compared for statistical significance (p<0.05) with drug-treated rates using Dunnett's multiple comparison test.

MMP-13 = MMP-13 (Homo sapiens, UniProt P45452); assay: MMP-13 inhibition (Table 1, no method described)
MMP-1 = molecular target: T3, MMP-1 (Homo sapiens, UniProt P03956); assay: In Vitro Collagenase Assay; settings: human recombinant fibroblast collagenase, fluorogenic peptide substrate
T3 construct: human recombinant fibroblast collagenase (truncated, mw=18,828)
T3 sequence (P03956 100-269 limits assumed): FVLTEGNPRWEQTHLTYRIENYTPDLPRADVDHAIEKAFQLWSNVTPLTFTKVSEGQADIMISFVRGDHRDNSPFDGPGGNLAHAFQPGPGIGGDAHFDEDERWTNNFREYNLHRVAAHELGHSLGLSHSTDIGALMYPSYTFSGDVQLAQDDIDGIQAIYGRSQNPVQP
Text: In Vitro Collagenase Assay
This assay was based on the cleavage of a peptide substrate ((Dnp-Pro-Cha-Gly-Cys(Me)-His-Ala-Lys(NMa)-NH2), available from Peptide International, Inc.) by collagenase releasing the fluorescent NMa group which was quantitated on the fluorometer as disclosed in Bickett et al., "A High Throughput Fluorogenic Substrate for Interstitial Collagenase (MMP-1) and Gelatinase (MMP-9)", Anal. Biochem., 212:58-64, (1993). Dnp quenches the NMa fluorescence in the intact substrate.
The assay was run in HCBC assay buffer (50 mM HEPES, pH 7.0, 5 mM Ca^+2, 0.02% Brij, 0.5% Cysteine), with human recombinant fibroblast collagenase (truncated, mw=18,828, from Wyeth-Ayerst Research, Radnor, PA). The substrate was dissolved in methanol and stored frozen in 1 mM aliquots. Collagenase was stored frozen in buffer in 25 µM aliquots. In conducting the assay, the substrate was dissolved in HCBC buffer to a final concentration of 10 µM and collagenase to a final concentration of 5 nM. The compounds being examined were dissolved in methanol, DMSO, or HCBC. The methanol and DMSO were diluted in HCBC to < 1.0%. The compounds were added to a 96 well plate containing enzyme and the reaction was started by the addition of substrate.
The reaction was read (excitation 340 nm, emission 444 nm) for 10 min. and the increase in fluorescence over time was plotted as a linear line. The slope of the line was calculated representing the reaction rate. The linearity of the reaction rate was confirmed (r^2 >0.85). The mean (x ± sem) of the control rate was calculated and compared for statistical significance (p <0.05) with drug-treated rates using Dunnett's multiple comparison test. Dose-response relationships were generated using multiple doses of drug and IC50 values with 95% CI were estimated using linear regression.

T1 sequence (P14780 94-707): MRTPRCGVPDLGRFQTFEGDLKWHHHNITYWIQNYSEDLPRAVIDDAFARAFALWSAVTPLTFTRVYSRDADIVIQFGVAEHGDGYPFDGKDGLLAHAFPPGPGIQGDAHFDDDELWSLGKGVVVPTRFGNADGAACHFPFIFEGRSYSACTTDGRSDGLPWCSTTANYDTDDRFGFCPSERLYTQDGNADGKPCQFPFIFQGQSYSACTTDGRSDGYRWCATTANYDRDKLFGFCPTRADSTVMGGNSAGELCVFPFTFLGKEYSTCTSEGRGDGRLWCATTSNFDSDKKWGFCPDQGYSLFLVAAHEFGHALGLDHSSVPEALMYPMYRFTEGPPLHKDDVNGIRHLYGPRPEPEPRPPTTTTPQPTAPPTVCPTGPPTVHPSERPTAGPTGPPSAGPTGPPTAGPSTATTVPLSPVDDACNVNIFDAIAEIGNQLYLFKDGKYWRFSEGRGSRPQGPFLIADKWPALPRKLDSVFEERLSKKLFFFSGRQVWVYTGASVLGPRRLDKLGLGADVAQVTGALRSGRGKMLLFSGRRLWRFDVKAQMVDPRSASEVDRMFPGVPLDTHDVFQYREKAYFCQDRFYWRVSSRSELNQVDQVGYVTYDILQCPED

IC50 (MMP-9) | IC50 (TACE) | IC50 (MMP-13) | IC50 (MMP-1) | Molecule
2 nM | 33 nM | 7 nM | 125 nM | 4-(4-But-2-ynyloxybenzene-sulfonyl)-1-methoxyacetyl-2,3,4,5-tetrahydro-1H-[1,4]benzodiazepine-3-carboxylic acid, hydroxyamide [Example 57]
33 nM | 10 nM | 29 nM | 841 nM | 4-(4-[4-Methoxybut-2-ynyloxy]benzenesulfonyl)-1-(3-pyridinylcarbonyl)-2,3,4,5-tetrahydro-1H-[1,4]benzodiazepine-3-carboxylic acid, hydroxyamide [Example 58]
228 nM | 16 nM | 77 nM | 835 nM | CC#CCOc1ccc(S(=O)(=O)N2Cc3ccccc3N(C(C)=O)CC2C(=O)NO)cc1 (centres unmarked) [Example 1, 1-Acetyl-4-(4-but-2-ynyloxbenzenesulfonyl)-2,3,4,5-tetrahydro-1H-[1,4]benzodiazepine-3-carboxylic acid, hydroxyamide]
36 nM |  |  | 165 nM | CC#CCOc1ccc(S(=O)(=O)N2Cc3ccccc3N(C(=O)c3ccccc3)CC2C(=O)NO)cc1 (centres unmarked) [Example 3, 1-Benzoyl-4-(4-but-2-ynyloxybenzenesulfonyl)-2,3,4,5-tetrahydro-1H-[1,4]-benzodiazepine-3-carboxylic acid, hydroxyamide]

From patent EP1147095B1, “2, 3, 4, 5-TETRAHYDRO-1H-[1, 4] BENZODIAZEPINE-3-HYDROXAMIC ACIDS AS MATRIX METALLOPROTEINASE INHIBITORS” (Wyeth Holdings Corporation, priority 1999, dated 2000)
